Some results are limits rather than exact numbers.

This experiment deals with T1, sGC (Rattus norvegicus, UniProt P20595).
T1 construct: Rat primary neurons were isolated from timed-pregnant female Sprague-Dawley (SD) rats; endogenous in cells; host or cells: rat primary neurons (Sprague-Dawley)
T1 sequence (P20595 1-619): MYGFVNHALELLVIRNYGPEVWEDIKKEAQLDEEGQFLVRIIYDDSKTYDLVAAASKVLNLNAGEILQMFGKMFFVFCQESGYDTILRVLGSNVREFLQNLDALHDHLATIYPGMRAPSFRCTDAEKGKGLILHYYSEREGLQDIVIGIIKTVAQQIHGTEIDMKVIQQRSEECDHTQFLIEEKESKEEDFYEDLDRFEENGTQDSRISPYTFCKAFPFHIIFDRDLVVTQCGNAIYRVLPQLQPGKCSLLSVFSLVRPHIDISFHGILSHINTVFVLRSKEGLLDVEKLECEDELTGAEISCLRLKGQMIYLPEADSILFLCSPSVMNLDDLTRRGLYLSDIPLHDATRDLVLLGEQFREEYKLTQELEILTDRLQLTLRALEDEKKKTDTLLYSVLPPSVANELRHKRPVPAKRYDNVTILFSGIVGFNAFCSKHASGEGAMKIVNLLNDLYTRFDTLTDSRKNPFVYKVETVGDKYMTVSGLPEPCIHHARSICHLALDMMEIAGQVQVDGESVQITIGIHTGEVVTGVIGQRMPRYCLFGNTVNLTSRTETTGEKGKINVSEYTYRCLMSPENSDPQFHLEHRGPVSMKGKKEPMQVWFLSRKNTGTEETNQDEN
T1 sequence (P19686 1-690 partner): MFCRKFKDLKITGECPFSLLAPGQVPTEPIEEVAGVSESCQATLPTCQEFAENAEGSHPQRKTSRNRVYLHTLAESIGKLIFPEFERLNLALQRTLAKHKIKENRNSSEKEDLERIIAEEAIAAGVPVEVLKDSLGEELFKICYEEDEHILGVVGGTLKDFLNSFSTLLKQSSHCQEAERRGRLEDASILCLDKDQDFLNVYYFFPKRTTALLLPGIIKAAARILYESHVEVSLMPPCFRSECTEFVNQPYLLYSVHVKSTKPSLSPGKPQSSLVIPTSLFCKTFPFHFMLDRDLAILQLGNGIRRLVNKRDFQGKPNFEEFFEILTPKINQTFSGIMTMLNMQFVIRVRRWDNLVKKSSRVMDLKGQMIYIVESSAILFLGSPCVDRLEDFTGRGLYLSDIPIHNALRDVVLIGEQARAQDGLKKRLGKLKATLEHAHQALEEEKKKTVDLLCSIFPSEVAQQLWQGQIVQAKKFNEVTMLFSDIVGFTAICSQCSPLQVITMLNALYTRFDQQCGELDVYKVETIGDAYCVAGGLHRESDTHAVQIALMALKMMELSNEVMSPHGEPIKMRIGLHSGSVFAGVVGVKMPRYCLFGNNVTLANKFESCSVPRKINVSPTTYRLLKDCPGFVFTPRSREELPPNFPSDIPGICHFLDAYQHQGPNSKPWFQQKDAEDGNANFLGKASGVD
Nature of the experiment: cGMP measurement in rat primary neurons (neuronal-based cell assay). The conditions noted are these: rat primary neurons (Sprague-Dawley); 0.5 mM IBMX; test compound with fixed DETA (Diethylenetriamine NONOate); 20 min at 37° C.; cGMP by CatchPoint kit; read-out: sGC Neuron EC50. The protocol:
Example 2: cGMP Measurement in Rat Primary Neurons
Rat primary neurons were isolated from timed-pregnant female Sprague-Dawley (SD) rats, washed once with HBSS with calcium and magnesium and incubated with a solution containing 0.5 mM 3-isobutyl-1-methylxanthine (IBMX) in HBSS (80 μL/well) at 37° C. for 15 min. Next, a 5× stock […] of test compound with a fixed concentration of DETA (Diethylenetriamine NONOate) was added to the wells to make x nM concentration for test compound solutions and a 30 µM concentration for DETA solution, where x was 1 of the following final concentrations: 0.029, 0.114, 0.460, 1.83, 7.32, 29.29, 117.2, 468.8, 1875, 7500 and 30,000 nM. Then, the cells were incubated for 20 min at 37° C. At the end of incubation, 100 μL lysis buffer (Molecular Devices) was added to cells. CatchPoint™ Cyclic-GMP Fluorescent Assay Kit was used with Molecular Devices' ID3 multi-mode plate reading. Sample cGMP concentrations were extrapolated from standard curve using Softmax Pro 7 Software. A well-characterized, potent sGC stimulator was included in all assay runs and used as a positive control.
Test compound (“agonist”) concentrations vs extrapolated cGMP concentrations (“response”) were plotted and analyzed using GraphPad Prism version 9.4.1. Curve fit was used for each dataset; non-linear log(agonist) vs. response-variable slope (four parameters). The EC50 is interpolated from the curve fit and is defined as the concentration at which the compound elicits 50% of its maximal response. When the experiment is carried out more than two times, the geometric mean is reported, otherwise the arithmetic mean is shown. To increase the accuracy of the EC50 calculations, top and bottom parameters were constrained when consistent with the observed data in a given assay run. For instance, in assay runs where the cGMP response values in the absence of test article were consistent across plates, an average across all of these wells was used as a lower constraint in the calculations. In assay runs where the maximal cGMP responses were consistent with that of the positive control, a top constraint equal to the maximal cGMP response of the positive control was applied. If there was significant variability in cGMP response in no compound wells or variation in maximal responses across plates, no constraints were imposed.
What is called EC50 is the concentration at which the effect is half-maximal. On to `N#Cc1cn2cc(-c3ncc(F)c(O)n3)nc(Cc3cc(F)c(F)cc3F)c2n1` [Compound I-3, 6-(5-fluoro-4-hydroxypyrimidin-2-yl)-8-(2,4,5-trifluorobenzyl)imidazo[1,2-a]pyrazine-2-carbonitrile], for which the EC50 was not above 100 nM.

On to `Cc1cc(C#N)c(F)cc1Cc1nc(-c2ncc(F)c(O)n2)cn2c(F)cnc12` [Compound I-4, 2-fluoro-4-((3-fluoro-6-(5-fluoro-4-hydroxypyrimidin-2-yl)imidazo[1,2-a]pyrazin-8-yl)methyl)-5-methylbenzonitrile], for which the EC50 is more than 5000 nM. For `Cc1cc(F)c(Cc2nc(-c3nc(O)c(F)c(CF)n3)cn3ncnc23)cc1F` [Compound I-5, 2-(8-(2,5-difluoro-4-methylbenzyl)-[1,2,4]triazolo[1,5-a]pyrazin-6-yl)-5-fluoro-6-(fluoromethyl)pyrimidin-4-ol], the half-maximal effective concentration (EC50) lay within 1000 to 5000 nM. Then `Cc1cnc2c(Cc3cc(F)c(Cl)cc3F)nc(-c3nc(O)c(F)c(O)n3)cn12` [Compound I-6, 2-(8-(4-chloro-2,5-difluorobenzyl)-3-methylimidazo[1,2-a]pyrazin-6-yl)-5-fluoropyrimidine-4,6-diol], with more than 5000 nM; and `COc1cnc2c(Cc3cc(F)c(C)cc3F)nc(-c3ncc(C)c(O)n3)cn12` [Compound I-7, 2-(8-(2,5-difluoro-4-methylbenzyl)-3-methoxyimidazo[1,2-a]pyrazin-6-yl)-5-methylpyrimidin-4-ol], with more than 5000 nM.

Take `CC(=O)c1cnc2c(Cc3cc(F)ccc3F)nc(-c3nc(C)c(F)c(O)n3)cn12` [Compound I-8, 1-(8-(2,5-difluorobenzyl)-6-(5-fluoro-4-hydroxy-6-methylpyrimidin-2-yl)imidazo[1,2-a]pyrazin-3-yl)ethan-1-one]: the EC50 is more than 5000 nM. Then `CC(=O)c1ccc(Cc2nc(-c3ncc(F)c(O)n3)cn3c(Cl)cnc23)c(F)c1` [Compound I-9, 1-(4-((3-chloro-6-(5-fluoro-4-hydroxypyrimidin-2-yl)imidazo[1,2-a]pyrazin-8-yl)methyl)-3-fluorophenyl)ethan-1-one], with more than 5000 nM; and `CSc1cnc2c(Cc3cc(F)c(C)cc3F)nc(-c3nc(O)c(C)c(Br)n3)cn12` [Compound I-12, 6-bromo-2-(8-(2,5-difluoro-4-methylbenzyl)-3-(methylthio)imidazo[1,2-a]pyrazin-6-yl)-5-methylpyrimidin-4-ol], with more than 5000 nM; and `Cc1cc(F)c(Cc2nc(-c3ncc(C#N)c(O)n3)cn3c(F)cnc23)cc1F` [Compound I-17, 2-(8-(2,5-difluoro-4-methylbenzyl)-3-fluoroimidazo[1,2-a]pyrazin-6-yl)-4-hydroxypyrimidine-5-carbonitrile], with not above 100 nM. `COc1c(O)nc(-c2cn3ccnc3c(Cc3cc(F)c(C)cc3F)n2)nc1CF` [Compound I-21, 2-(8-(2,5-difluoro-4-methylbenzyl)imidazo[1,2-a]pyrazin-6-yl)-6-(fluoromethyl)-5-methoxypyrimidin-4-ol]: the EC50 lay in the range of 100 to 1000 nM. Turning to `COCc1nc(-c2cn3ccnc3c(Cc3cc(F)c(C)cc3F)n2)nc(O)c1F` [Compound I-22, 2-(8-(2,5-difluoro-4-methylbenzyl)imidazo[1,2-a]pyrazin-6-yl)-5-fluoro-6-(methoxymethyl)pyrimidin-4-ol], the EC50 is 100 to 1000 nM. Regarding `CC(=O)c1cnc(-c2cn3ccnc3c(Cc3cc(F)c(C)cc3F)n2)nc1O` [Compound I-24, 1-(2-(8-(2,5-difluoro-4-methylbenzyl)imidazo[1,2-a]pyrazin-6-yl)-4-hydroxypyrimidin-5-yl)ethan-1-one], the EC50 was 100 to 1000 nM. Consider `Cc1cc(F)c(Cc2nc(-c3ncc(CO)c(O)n3)cn3ccnc23)cc1F` [Compound I-25, 2-(8-(2,5-difluoro-4-methylbenzyl)imidazo[1,2-a]pyrazin-6-yl)-5-(hydroxymethyl)pyrimidin-4-ol], for which the EC50 lay in the range of 100 to 1000 nM. As for `Cc1cc(F)c(Cc2nc(-c3nc(O)cc(CCO)n3)cn3ccnc23)cc1F` [Compound I-26, 2-(8-(2,5-difluoro-4-methylbenzyl)imidazo[1,2-a]pyrazin-6-yl)-6-(2-hydroxyethyl)pyrimidin-4-ol], the 50% effective concentration (EC50) was more than 5000 nM.

With `COCc1nc(-c2cn3ccnc3c(Cc3cc(F)c(C)cc3F)n2)nc(O)c1OC` [Compound I-27, 2-(8-(2,5-difluoro-4-methylbenzyl)imidazo[1,2-a]pyrazin-6-yl)-5-methoxy-6-(methoxymethyl)pyrimidin-4-ol], the EC50 is more than 5000 nM.

With `Cc1cc(F)c(Cc2nc(-c3ncc(C(C)O)c(O)n3)cn3ccnc23)cc1F` (stereo not shown) [Compound I-28, 2-(8-(2,5-difluoro-4-methylbenzyl)imidazo[1,2-a]pyrazin-6-yl)-5-(1-hydroxyethyl)pyrimidin-4-ol], the EC50 fell in the range of 100 to 1000 nM.

Take `COc1cnc2c(Cc3cc(F)c(C)cc3F)nc(-c3ncc(Cl)c(O)n3)cn12` [Compound I-29, 5-chloro-2-{8-[(2,5-difluoro-4-methylphenyl)methyl]-3-methoxyimidazo[1,2-a]pyrazin-6-yl}pyrimidin-4-ol]: the EC50 fell in the range of 100 to 1000 nM. Then `CCc1cc(O)nc(-c2cn3ccnc3c(Cc3cc(F)c(C)cc3F)n2)n1` [Compound I-30, 2-{8-[(2,5-difluoro-4-methylphenyl)methyl]imidazo[1,2-a]pyrazin-6-yl}-6-ethylpyrimidin-4-ol], with 1000 to 5000 nM; and `Cc1nc(-c2cn3c(C(C)O)cnc3c(Cc3cc(F)ccc3F)n2)nc(O)c1F` (stereo not shown) [Compound I-31, 2-(8-(2,5-difluorobenzyl)-3-(1-hydroxyethyl)imidazo[1,2-a]pyrazin-6-yl)-5-fluoro-6-methylpyrimidin-4-ol], with more than 5000 nM; and `COc1cnc2c(Cc3cc(F)c(C#N)cc3C)nc(-c3ncc(F)c(O)n3)cn12` [Compound I-32, 2-fluoro-4-((6-(5-fluoro-4-hydroxypyrimidin-2-yl)-3-methoxyimidazo[1,2-a]pyrazin-8-yl)methyl)-5-methylbenzonitrile], with more than 5000 nM.

For the compound `Cc1cc(F)c(Cc2nc(-c3ncc(F)c(O)n3)cn3c(CO)cnc23)cc1F` [Compound I-35, 2-(8-(2,5-difluoro-4-methylbenzyl)-3-(hydroxymethyl)imidazo[1,2-a]pyrazin-6-yl)-5-fluoropyrimidin-4-ol], the EC50 was in the range of 1000 to 5000 nM. In the case of `CCOCc1nc(-c2cn3ncnc3c(Cc3cc(F)c(C)cc3F)n2)nc(O)c1F` [Compound I-44, 2-(8-(2,5-difluoro-4-methylbenzyl)-[1,2,4]triazolo[1,5-a]pyrazin-6-yl)-6-(ethoxymethyl)-5-fluoropyrimidin-4-ol], the half-maximal effective concentration (EC50) was more than 5000 nM.

The values above are taken from patent US20260152504A1, “PYRIMIDINE SGC STIMULATORS” (Tisento Therapeutics Inc., priority 2022, published 2026).
